Experiments:
primary CLL samples = assay: TMT-tagging and mass-spectrometry profiling of relative protein abundance after compound exposure; assay type: cell-based, human
Source text: Data import: Relative abundance (RA) data was imported into the R statistical programming environment v.3.1.2. Proteins with less than one spectral count in any of the three MS runs for each case scenario were filtered out and relative abundance was scale normalized to the same median by using normalizeBetweenArrays( ) function implemented in the limma package for Bioconductor (see Yang et al., Nucleic Acids Research, 30(4), e15 (2002)).
Comparative analysis: RA scores were log 2-transformed to perform direct comparison of compounds exposure versus DMSO control and a paired moderated t-test (see Smyth, Statistical Applications in Genetics and Molecular Biology, 3(1), article 3 (2004)) was performed by using lmfit( ) and eBayes( ) functions form limma package to test differential relative abundance between experimental conditions. For differential analysis across cases, the log-2 fold changes of replicates for two of the case scenarios were considered.
Linear regression analysis: Linear regression was modeled by using lm( ) function from the stats package. This function provided the correlation coefficients as well as the linear fitted model. Data were assessed for outliers detection within the linear model via the Studentized residuals method (implemented in outlierTest( ) function from car package) and deemed significant if their q-values were under a threshold of 0.05 (5%).
The proteins subjected to the analysis were those with more than one spectral count matched in three MS runs representing each case scenario. A total of 6114, 6070, 5982 and 5382 proteins were retained for each case scenario. Differential expression analysis was applied to the high and consistent coverage of 4594 proteins quantified across all case scenarios. FIGS. 2A-2D show distribution of normalized relative abundances for each replicate of the four case scenarios (Cases B1-B4). The standard deviation of each replicate is represented as a stair-plot line at the bottom of the boxplot. FIGS. 3A-3D show heatmaps representing correlations of log 2 fold-changes of protein levels post compound treatment as compared with DMSO across conditions for all case scenarios. Low correlation of log 2 fold-changes at 6 hours may be due to the alteration of a small subset of proteins at an early time point without strong general effects across the proteome. Stronger correlations at 24 hours can be linked to a higher proportion of proteins perturbed reflecting downstream changes upon compound exposure.

[1] = system: samples from CLL patients; assay: in vitro proliferation assays on samples from four groups of CLL patients; assay type: cell-based, human
Source text: The samples used in this study were from four groups of CLL patients.

CLL cell lines = assay: Thymidine incorporation assay (cell proliferation); assay type: cell-based
Experimental: After four days, cells were diluted 1:7 with fresh media, containing the same concentration of treatment compound. Three days later, ^3H-thymidine was added to label proliferating cells for 6-7 hours. Cells were then harvested onto filter plates for counting on a scintillation counter.

PDE6D = assay: Western blot of residual PDE6D protein level; assay type: cell-based; settings: 1 μM Compound A vs 10 μM lenalidomide, 72 hours; EHEB, I83-E95, Mec2, CII, and CI
Experimental: Cells were then harvested and processed for SDS-PAGE and western blot. PDE6D antibody was purchased from Pierce and used at 1:300. For western blot quantification, the band intensity was measured using an Odyssey imager and then normalized to β-actin loading controls. Scatter plot: […]

[2] = Cmp A vs. len, Case B1, 10 μM, 24 hours
[3] = Cmp A vs. len, Case B2, 10 μM, 24 hours
[4] = Cmp A vs. len, Case B3, 10 μM, 24 hours
[5] = FIG. 5 heatmap, 10 μM, 24 hours, vs DMSO

Cc1nc2cccc(N)c2c(=O)n1C1CCC(=O)NC1=O (stereo not drawn) [Compound A, 3-(5-amino-2-methyl-4-oxo-4H-quinazolin-3-yl)-piperidine-2,6-dione]
logFC IRF8 (Q02556) (primary CLL samples; [2]): −0.5643 | logFC KLF13 (Q9Y2Y9) (primary CLL samples; [2]): −1.092 | logFC LGALS9 (O00182) (primary CLL samples; [2]): −0.5646 | logFC MARCKS (P29966) (primary CLL samples; [2]): 1.438 | logFC NDE1 (Q9NXR1) (primary CLL samples; [2]): 0.7281 | logFC NFKBIE (O00221) (primary CLL samples; [2]): −0.7408 | logFC PTK2B (Q14289-2) (primary CLL samples; [2]): 0.9815 | logFC SAMSN1 (Q9NSI8) (primary CLL samples; [2]): 0.6554 | logFC SELL (P14151-2) (primary CLL samples; [2]): −1.823 | logFC SLAMF1 (Q13291) (primary CLL samples; [2]): 0.9251 | logFC SNX20 (Q7Z614) (primary CLL samples; [2]): −0.5611 | logFC SOD2 (P04179) (primary CLL samples; [2]): 0.6081 | logFC TCF7 (P36402-3) (primary CLL samples; [2]): −0.7071 | logFC TRAF1 (Q13077) (primary CLL samples; [2]): 0.768 | logFC WIZ (M0QXA7) (primary CLL samples; [2]): −0.4839 | logFC ZBTB10 (Q96DT7) (primary CLL samples; [2]): 0.9382 | logFC IKZF1 (Q13422) (primary CLL samples; [3]): −2.186 | logFC IKZF3 (Q9UKT9) (primary CLL samples; [3]): −2.626 | logFC CD40 (P25942) (primary CLL samples; [4]): 0.8064 | logFC CR2 (P20023-3) (primary CLL samples; [4]): 0.7925 | logFC CTSS (P25774) (primary CLL samples; [4]): 0.5932 | logFC GBP1 (P32455) (primary CLL samples; [4]): 1.117 | logFC IKZF1 (Q13422) (primary CLL samples; [4]): −2.686 | logFC IKZF3 (Q9UKT9) (primary CLL samples; [4]): −1.425 | logFC ISG20 (Q96AZ6) (primary CLL samples; [4]): 0.6234 | logFC PTK2B (Q14289-2) (primary CLL samples; [4]): 0.8361 | logFC SAMSN1 (Q9NSI8) (primary CLL samples; [4]): 0.89 | logFC SASH1 (O94885) (primary CLL samples; [4]): 0.7177 | logFC SELL (P14151-2) (primary CLL samples; [4]): −1.03 | logFC SEMA7A (O75326) (primary CLL samples; [4]): 0.904 | logFC SLAMF1 (Q13291) (primary CLL samples; [4]): 1.086 | logFC SOD2 (P04179) (primary CLL samples; [4]): 0.6319 | logFC TRAF1 (Q13077) (primary CLL samples; [4]): 0.7523 | logFC PDE6D (O43924) (primary CLL samples; Cmp A vs. len, Case B4, 10 μM, 24 hours): −1.494 | IKZF1 (Ikaros) protein level (primary CLL samples; [5]): decreases across all experimental conditions with stronger effect upon Compound A exposure | levels of Group 4 proteins (6 proteins including IKZF3 and a second IKZF1 isoform) upon exposure (primary CLL samples; [5]): decrease significantly | protein abundance levels of Group 3 proteins (SMNX20, SELL, KLF13, WIZ, IKZF1, NFKBIE, TCF7 and IRF8) upon exposure (primary CLL samples; [5]): decrease | STAT1 protein abundance, log 2 fold-change vs DMSO (primary CLL samples; resistant scenario (Case B4)): −0.018 | STAT1 protein abundance, log 2 fold-change vs DMSO (primary CLL samples; sensitive patient sample (Case B3)): 0.547 | effect on cell proliferation ([1]; samples from the fourth group of patients (Case B4)): neither Compound A nor lenalidomide had any effect on cell proliferation | effect on cell proliferation ([1]; samples from the second group of patients (Case B2)): stronger proliferation reduction effect than lenalidomide | effect on cell proliferation ([1]; samples from the third group of patients (Case B3)): reduced cell proliferation | cell growth inhibition (CLL cell lines; 1 μM Compound A vs 10 μM lenalidomide, EHEB, I83-E95, Mec2, CII, and CI): more cell growth inhibition | responsiveness of cell lines to treatment (CLL cell lines; Bucket #1 (EHEB and I83-E95)): responsive to both compounds | responsiveness of cell lines to treatment (CLL cell lines; Bucket #2 (Mec2, CII, and CI)): more sensitive to Compound A than to lenalidomide | responsiveness of cell lines to treatment (CLL cell lines; Bucket #3 (WA-C3-CD5, WA-OSEL, Mec1, and PGA1)): responsive to Compound A | responsiveness of cell lines to treatment (CLL cell lines; Bucket #4 (HG3)): not responsive to either Compound A or lenalidomide | PDE6D reduction (PDE6D): more PDE6D reduction

— US20170038387A1, “METHODS FOR TREATING CHRONIC LYMPHOCYTIC LEUKEMIA AND THE USE OF BIOMARKERS AS A PREDICTOR OF CLINICAL SENSITIVITY TO IMMUNOMODULATORY THERAPIES” (Celgene Corporation, priority 2015, published 2017)
